# Literature values as cited in patent US20230233697A1, “CYTOTOXIC BENZODIAZEPINE DERIVATIVES” (priority 2014, published 2023).
# Details: Phase I clinical evaluation; cited from earlier work
compound,measurement,value
C=C1C[C@H]2C=Nc3cc(OCCCOc4cc5c(cc4OC)C(=O)N4CC(=C)C[C@H]4C=N5)c(OC)cc3C(=O)N2C1 [SJG-136],maximum tolerated dose,45 μg/m^2
